Assay results as given in ChEMBL document CHEMBL5532637, “Antimicrobial activity of natural and semi-synthetic carbazole alkaloids” (Eur J Med Chem, 2023).
≈ marks a conversion by molar mass, not a printed value.

What was measured:
[1] = test system: Staphylococcus aureus; experiment: Antibacterial activity against methicillin-resistant Staphylococcus aureus N315 assessed as inhibition of bacterial growth by micro broth dilution method; type: functional
[2] = test system: Escherichia coli; experiment: Antibacterial activity against Escherichia coli assessed as inhibition of bacterial growth by micro broth dilution method; type: functional
[3] = test system: Escherichia coli; experiment: Antibacterial activity against Escherichia coli MTCC 1652 assessed as inhibition of bacterial growth by broth micro-dilution assay; type: functional
[4] = test system: Pseudomonas putida; experiment: Antibacterial activity against Pseudomonas putida MTCC102 assessed as inhibition of bacterial growth by broth micro-dilution assay; type: functional
[5] = test system: Staphylococcus aureus; experiment: Antibacterial activity against Staphylococcus aureus MTCC 96 assessed as inhibition of bacterial growth by broth micro-dilution assay; type: functional
[6] = test system: Bacillus cereus; experiment: Antibacterial activity against Bacillus cereus MTCC 121 assessed as inhibition of bacterial growth by broth micro-dilution assay; type: functional
[7] = test system: Enterococcus faecalis; experiment: Antibacterial activity against multidrug-resistant Enterococcus faecalis assessed as inhibition of bacterial growth incubated for 12 to 36 hrs by broth dilution method; type: functional; conditions: time 12-36 hrs
[8] = test system: Staphylococcus aureus; experiment: Antibacterial activity against methicillin-resistant Staphylococcus aureus assessed as inhibition of bacterial growth incubated for 12 to 36 hrs by broth dilution method; type: functional; conditions: time 12-36 hrs
[9] = test system: Staphylococcus aureus; experiment: Antimicrobial activity against Staphylococcus aureus ATCC 6538 assessed as inhibition of microbial growth by microbroth dilution method; type: functional
[10] = test system: Klebsiella pneumoniae; experiment: Antimicrobial activity against Klebsiella pneumoniae ATCC 4352 assessed as inhibition of microbial growth by microbroth dilution method; type: functional
[11] = test system: Candida albicans; experiment: Antimicrobial activity against Candida albicans ATCC 10231 assessed as inhibition of microbial growth by microbroth dilution method; type: functional
[12] = test system: Staphylococcus aureus; experiment: Antibacterial activity against Staphylococcus aureus […] assessed as inhibition of bacterial growth; type: functional
[13] = test system: Proteus mirabilis; experiment: Antibacterial activity against Proteus mirabilis ATCC 29906 assessed as inhibition of bacterial growth; type: functional
[14] = test system: Bacillus subtilis; experiment: Antibacterial activity against Bacillus subtilis DSM 6333 assessed as inhibition of bacterial growth; type: functional
[15] = test system: Candida albicans; experiment: Antifungal activity against Candida albicans ATCC 1231 assessed as inhibition of fungal growth; type: functional
[16] = test system: Klebsiella pneumoniae; experiment: Antimicrobial activity against Klebsiella pneumoniae RCMB000111 assessed as inhibition of microbial growth; type: functional
[17] = test system: Escherichia coli; experiment: Antimicrobial activity against Escherichia coli RCMB000103 assessed as inhibition of microbial growth; type: functional
[18] = test system: Staphylococcus aureus; experiment: Antimicrobial activity against Staphylococcus aureus RCMB000106 assessed as inhibition of microbial growth; type: functional
[19] = test system: Bacillus subtilis; experiment: Antimicrobial activity against Bacillus subtilis RCMB 000107 assessed as inhibition of microbial growth; type: functional
[20] = test system: Geotrichum candidum; experiment: Antimicrobial activity against Geotrichum candidum RCMB050102 assessed as inhibition of microbial growth; type: functional
[21] = test system: Salmonella typhimurium; experiment: Antimicrobial activity against Salmonella typhimurium RCMB010072 assessed as inhibition of microbial growth; type: functional, Salmonella enterica subsp. enterica serovar Typhimurium; conditions: Salmonella enterica
[22] = test system: Aspergillus niger; experiment: Antimicrobial activity against Aspergillus niger RCMB02329 assessed as inhibition of microbial growth; type: functional
[23] = test system: Xanthomonas axonopodis; experiment: Antimicrobial activity against Xanthomonas axonopodis incubated for 24 to 48 hrs by turbidimeter test; type: functional, organism-based
[24] = test system: Xanthomonas oryzae; experiment: Antimicrobial activity against Xanthomonas oryzae incubated for 24 to 48 hrs by turbidimeter test; type: functional, organism-based
[25] = Antimicrobial activity against Pseudomonas syringae pv. actinidiae incubated for 24 to 48 hrs by turbidimeter test; type: functional
[26] = test system: Candida albicans; experiment: Antifungal activity against Candida albicans assessed as inhibition of fungal growth incubated for 1 to 5 days; type: functional; conditions: time 1-5 day
[27] = test system: Cryptococcus neoformans; experiment: Antimicrobial activity against Cryptococcus neoformans ATCC6603 assessed as inhibition of microbial growth incubated for 18 hrs by resazurin dye based two-fold serial dilution assay; type: functional
[28] = test system: Staphylococcus aureus; experiment: Antimicrobial activity against Staphylococcus aureus clinical isolate assessed as inhibition of microbial growth incubated for 18 hrs by resazurin dye based two-fold serial dilution assay; type: functional
[29] = test system: Staphylococcus aureus; experiment: Antimicrobial activity against Staphylococcus aureus assessed as inhibition of microbial growth incubated for 18 hrs by resazurin dye based two-fold serial dilution assay; type: functional
[30] = test system: Cryptococcus neoformans; experiment: Antimicrobial activity against Cryptococcus neoformans clinical isolate assessed as inhibition of microbial growth incubated for 18 hrs by resazurin dye based two-fold serial dilution assay; type: functional
[31] = test system: Escherichia coli; experiment: Antimicrobial activity against Escherichia coli assessed as zone of inhibition at 40 ug/ml; type: functional; conditions: read-out: IZ
[32] = test system: Aspergillus flavus; experiment: Antimicrobial activity against Aspergillus flavus assessed as zone of inhibition at 50 ug/ml; type: functional; conditions: read-out: IZ
[33] = test system: Staphylococcus aureus; experiment: Antimicrobial activity against Staphylococcus aureus assessed as zone of inhibition at 40 ug/ml; type: functional; conditions: read-out: IZ
[34] = test system: Bacillus subtilis; experiment: Antimicrobial activity against Bacillus subtilis assessed as zone of inhibition at 40 ug/ml; type: functional; conditions: read-out: IZ
[35] = test system: Klebsiella pneumoniae; experiment: Antimicrobial activity against Klebsiella pneumoniae assessed as zone of inhibition at 40 ug/ml; type: functional; conditions: read-out: IZ
[36] = test system: Fusarium oxysporum; experiment: Antimicrobial activity against Fusarium oxysporum assessed as zone of inhibition at 50 ug/ml; type: functional; conditions: read-out: IZ
[37] = test system: Aspergillus niger; experiment: Antimicrobial activity against Aspergillus niger assessed as zone of inhibition at 50 ug/ml; type: functional; conditions: read-out: IZ
[38] = test system: Escherichia coli; experiment: Antimicrobial activity against Escherichia coli 1924 assessed as inhibition of microbial growth incubated for 24 hrs by two-fold serial dilution assay; type: functional
[39] = test system: Staphylococcus aureus; experiment: Antimicrobial activity against methicillin-resistant Staphylococcus aureus CCARM 3167 assessed as inhibition of microbial growth incubated for 24 hrs by two-fold serial dilution assay; type: functional
[40] = test system: Candida albicans; experiment: Antimicrobial activity against Candida albicans 7535 assessed as inhibition of microbial growth incubated for 24 hrs by two-fold serial dilution assay; type: functional
[41] = test system: Staphylococcus aureus; experiment: Antimicrobial activity against Staphylococcus aureus 4220 assessed as inhibition of microbial growth incubated for 24 hrs by two-fold serial dilution assay; type: functional
[42] = test system: Streptococcus mutans; experiment: Antimicrobial activity against Streptococcus mutans 3289 assessed as inhibition of microbial growth incubated for 24 hrs by two-fold serial dilution assay; type: functional

With `Cn1c(=O)c2ncn(CC(O)Cn3c4ccccc4c4cc(Br)ccc43)c2n(C)c1=O` (configuration not stated) as the compound, how does the MIC [1] read?
The MIC was 8 µM (≈ 3.86 µg/mL).

And the MIC [2]?
Its MIC is 33 µM (≈ 15.9 µg/mL).

For `O=C(Nc1ccc(F)cc1)C(=O)c1ccc2c(c1)c1ccccc1n2Cc1ccc(Cl)cc1`, which MIC [3] is on record?
The MIC was 8 µg/mL (≈ 17.5 µM).

What about the MIC [4] of the same compound?
The MIC was 8 µg/mL (≈ 17.5 µM).

What about the MIC [5] of the same compound?
Its MIC is 8 µg/mL (≈ 17.5 µM).

And the MIC [6]?
Its MIC is 8 µg/mL (≈ 17.5 µM).

With `Oc1cc(-c2ccc3c(c2)[nH]c2ccccc23)cc(O)c1O` as the compound, how does the MIC [7] read?
The MIC was 6.25 µg/mL (≈ 21.5 µM).

What about the MIC [8] of the same compound?
The MIC was 3.13 µg/mL (≈ 10.7 µM).

For `Oc1c(/C=N/c2ccc(Cl)cc2Cl)ccc2[nH]c3ccccc3c12`, which MIC [9] is on record?
The MIC was 1.4 µg/mL.

What about the MIC [10] of the same compound?
Its MIC is 1.4 µg/mL.

What about the MIC [11] of the same compound?
The MIC was 1.4 µg/mL.

With `c1ccc2c(c1)c1ccccc1n2Cn1cncn1` as the compound, how does the MIC [12] read?
Its MIC is 31.2 µg/mL (≈ 126 µM).

What about the MIC [13] of the same compound?
Its MIC is 31.2 µg/mL (≈ 126 µM).

And the MIC [14]?
The MIC was 31.2 µg/mL (≈ 126 µM).

And the MIC [15]?
The MIC was 0.016 µg/mL (≈ 0.0644 µM).

Which results are given for `CCn1c2ccccc2c2cc(/C=N/NC3=NC(=O)/C(=N\Nc4ccccc4)S3)ccc21`?
MIC [16]: 0.49 µg/mL; MIC [17]: 0.49 µg/mL; MIC [18]: 0.49 µg/mL; MIC [19]: 0.49 µg/mL; MIC [20]: 0.49 µg/mL; MIC [21]: 0.49 µg/mL; MIC [22]: 0.49 µg/mL

Which EC50 [23] does the source give for `OC(CNCc1ccc(Cl)cc1)Cn1c2ccccc2c2ccccc21` (configuration not stated) here?
The EC50 was 1.96 µg/mL (≈ 5.37 µM).

What about the EC50 [24] of the same compound?
The EC50 was 1.27 µg/mL (≈ 3.48 µM).

What about the EC50 [25] of the same compound?
The EC50 was 3.83 µg/mL (≈ 10.5 µM).

With `CCn1c2ccccc2c2cc(-c3cc(-c4cc(Cl)cc(O)c4O)n[nH]3)ccc21` as the compound, how does the MIC [26] read?
The MIC was 25 µg/mL (≈ 61.9 µM).

What does the source list for `COc1cccc2c1[nH]c1ccc(C(=O)N3CCCCC3C)cc12` (configuration not stated)?
MIC [27]: 6.25 µg/mL; MIC [28]: 6.25 µg/mL; MIC [29]: 6.25 µg/mL; MIC [30]: 12.5 µg/mL

Which results are given for `CCn1c2ccccc2c2cc(/C=C/C(=O)c3cc(Cl)cc(Cl)c3OCc3cn(Cc4ccccc4)nn3)ccc21`?
zone of inhibition at 40 µg/mL [31]: 26.4 mm; zone of inhibition at 50 µg/mL [32]: 12.9 mm; zone of inhibition at 40 µg/mL [33]: 21.4 mm; zone of inhibition at 40 µg/mL [34]: 24.2 mm; zone of inhibition at 40 µg/mL [35]: 23.6 mm; zone of inhibition at 50 µg/mL [36]: 15.3 mm; zone of inhibition at 50 µg/mL [37]: 15 mm

With `CN(C)C1=NC(c2ccc3c(c2)c2ccccc2n3Cc2ccc(Cl)cc2Cl)N=C(N)N1` (configuration not stated) as the compound, how does the MIC [38] read?
The MIC was 0.5 µg/mL.

And the MIC [39]?
The MIC was 0.5 µg/mL.

And the MIC [40]?
Its MIC is 0.5 µg/mL.

And the MIC [41]?
Its MIC is 0.5 µg/mL.

And the MIC [42]?
The MIC was 0.5 µg/mL.
